# Patent US20230263822A1, “MODULATION OF FACTOR 11 EXPRESSION” (Ionis Pharmaceuticals, Inc., priority 2008, published 2023)
# Strand notation (5' to 3'): a small letter for the sugar, then the base; units joined by * are phosphorothioate-linked, units joined directly phosphodiester-linked; [ ] holds rarer units or linkages, { } end groups; capitals alone tell only the bases. e = 2'-O-(2-methoxyethyl) (MOE); [5mC] = 5-methylcytosine; d = 2'-deoxy (DNA)
# Experiments:
# [1] = system: Factor 11 mRNA; test: Factor 11 mRNA in cynomolgus monkey liver, day 85 (Example 45); format: in vivo; settings: cynomolgus monkeys, s.c. escalating doses 5-25 mg/kg over 12 weeks
# Experimental: Groups, each consisting of two male and three female monkeys, were injected subcutaneously with ISIS 416838, ISIS 416850, ISIS 416858, ISIS 416864, or ISIS 417002 in escalating doses. Antisense oligonucleotide was administered to the monkeys at 5 mg/kg three times per a week for week 1; 5 mg/kg twice per week for weeks 2 and 3; 10 mg/kg three times per week for week 4; 10 mg/kg twice per week for weeks 5 and 6; 25 mg/kg three times per week for week 7; and 25 mg/kg twice per week for weeks 8, 9, 10, 11, and 12. One control group, consisting of two male and three female monkeys, was injected subcutaneously with PBS according to the same dosing regimen. An additional experimental group, consisting of two male and three female monkeys, was injected subcutaneously with ISIS 416850 in a chronic, lower dose regimen. Antisense oligonucleotide was administered to the monkeys at 5 mg/kg three times per week for week 1; 5 mg/kg twice per week for week 2 and 3; 10 mg/kg three times per week for week 4; and 10 mg/kg twice per week for weeks 5 to 12. Body weights were measured weekly. Blood samples were collected 14 days and 5 days before the start of treatment and subsequently once per week for Factor 11 protein activity analysis in plasma, fibrinogen measurement, PT and aPTT measurements, bleeding times, and measurement of various hematologic factors. On day 85, the monkeys were euthanized by exsanguination while under deep anesthesia, and organs harvested for further analysis.
# On day 85, RNA was extracted from liver tissue for real-time PCR analysis of Factor 11 using primer probe set LTS00301 (forward primer sequence […], designated herein as SEQ ID NO 271; reverse primer sequence […], designated herein as SEQ ID NO: 272; and probe sequence TGCAGGCACAGCATCCCAGTGTTCTX, designated herein as SEQ ID NO. 273). Results are presented as percent inhibition of Factor 11, relative to PBS control.
# [2] = Tolerability in Sprague-Dawley rats: body weight and organ weight (Example 42); settings: 50 mg/kg s.c. twice per week for 6 weeks; for Change in Kidney weight / Change in Liver weight / Change in Spleen weight: end of study; for Change in body weight: percent increase over the PBS control weight
# [3] = Tolerability in Sprague-Dawley rats: kidney function (Example 42); settings: 50 mg/kg s.c. twice per week for 6 weeks; for BUN / Creatinine: plasma
# [4] = Tolerability in Sprague-Dawley rats: liver function (Example 42); settings: 50 mg/kg s.c. twice per week for 6 weeks, plasma
# [5] = Tolerability in Sprague-Dawley rats: hematology assays (Example 42); settings: 50 mg/kg s.c. twice per week for 6 weeks, blood
substance,measurement,setting,value
"416838 (antisense GCAACCGGGATGATGAGTGC; 5-10-5 gapmer, further chemistry not given here) [compound 416838]",% inhibition of Factor 11 mRNA in the cynomolgus monkey liver relative to the PBS control,[1],37%
"416850 (antisense TGCACAGTTTCTGGCAGGCC; 5-10-5 gapmer, further chemistry not given here) [compound 416850]",% inhibition of Factor 11 mRNA in the cynomolgus monkey liver relative to the PBS control,[1],84%
"416858 (antisense ACGGCATTGGTGCACAGTTT; 5-10-5 gapmer, further chemistry not given here) [compound 416858]",% inhibition of Factor 11 mRNA in the cynomolgus monkey liver relative to the PBS control,[1],90%
"416864 (antisense GGCAGCGGACGGCATTGGTG; 5-10-5 gapmer, further chemistry not given here) [compound 416864]",% inhibition of Factor 11 mRNA in the cynomolgus monkey liver relative to the PBS control,[1],44%
"417002 (antisense GGTGCACAGTTTCTGGCAGG; 2-13-5 gapmer chemistry, further chemistry not given here) [compound 417002]",% inhibition of Factor 11 mRNA in the cynomolgus monkey liver relative to the PBS control,[1],57%
ISIS 445522: 5-8-5 or 6-8-6 MOE microwalk gapmer (Table 44) (antisense eG*e[5mC]*eA*e[5mC]*eA*dG*dT*dT*dT*d[5mC]*dT*dG*dG*e[5mC]*eA*eG*eG*e[5mC]),Change in Kidney weight,[2],+19%
same,Change in Liver weight,[2],+26%
same,Change in Spleen weight,[2],+184%
same,Change in body weight,[2],−13%
same,BUN,[3],25 mg/dL
same,Creatinine,[3],0.4 mg/dL
same,Urine protein/creatinine ratio,[3],6.4
same,ALT,[4],240 IU/L
same,AST,[4],138 IU/L
same,Albumin,[4],3.6
same,Bilirubin,[4],0.47 mg/dL
same,HCT,[5],47%
same,Lymphocyte,[5],84%
same,Neutrophil,[5],13%
same,Platelets,[5],1334 nL⁻¹
same,RBC,[5],7.7 pL⁻¹
same,WBC,[5],18 nL⁻¹
same,hemoglobin,[5],13.6 g/dL
same,monocytes,[5],2.8%
ISIS 445531: 5-8-5 or 6-8-6 MOE microwalk gapmer (Table 44) (antisense eG*eG*e[5mC]*eA*eT*dT*dG*dG*dT*dG*d[5mC]*dA*d[5mC]*eA*eG*eT*eT*eT),Change in Kidney weight,[2],+4%
same,Change in Liver weight,[2],+17%
same,Change in Spleen weight,[2],+89%
same,Change in body weight,[2],−10%
same,BUN,[3],23 mg/dL
same,Creatinine,[3],0.4 mg/dL
same,Urine protein/creatinine ratio,[3],3.4
same,ALT,[4],272 IU/L
same,AST,[4],137 IU/L
same,Albumin,[4],3.7
same,Bilirubin,[4],0.12 mg/dL
same,HCT,[5],50%
same,Lymphocyte,[5],86%
same,Neutrophil,[5],10%
same,Platelets,[5],1023 nL⁻¹
same,RBC,[5],8.8 pL⁻¹
same,WBC,[5],13 nL⁻¹
same,hemoglobin,[5],14.8 g/dL
same,monocytes,[5],2.8%
